Test results as given in patent US20140024527A1, “HERBICIDAL PYRAZINONES” (E I DU DE NEMOURS AND COMPANY, priority 2011, published 2014).

Tests used:
Assay in all cases: Test B postemergence
Assay type in all cases: in vivo
Details in all cases: scale 0 to 100
[1] = system: blackgrass (Alopecurus myosuroides)
Text: (§1) Seeds of plant species selected from blackgrass (Alopecurus myosuroides), downy bromegrass (Bromus tectorum), green foxtail (Setaria viridis), Italian ryegrass (Lolium multiflorum), wheat (Triticum aestivum), wild oat (Avena fatua), galium (Galium aparine), bermudagrass (Cynodon dactylon), Surinam grass (Brachiaria decumbens), cocklebur (Xanthium strumarium), corn (Zea mays), large crabgrass (Digitaria sanguinalis), woolly cupgrass (Eriochloa villosa), giant foxtail (Setaria faberii), goosegrass (Eleusine indica), johnsongrass (Sorghum halepense), kochia (Kochia scoparia), lambsquarters (Chenopodium album), morningglory (Ipomoea coccinea), yellow nutsedge (Cyperus esculentus), pigweed (Amaranthus retroflexus), ragweed (Ambrosia elatior), soybean (Glycine max), velvetleaf (Abutilon theophrasti), barley (Hordeum vulgare), canarygrass (Phalaris minor), chickweed (Stellaria media), deadnettle (Lamium amplexicaule) and windgrass (Apera spica-venti) were planted in pots containing Redi-Earth® planting medium (Scotts Company, Marysville, Ohio, USA) comprising spaghnum peat moss, vermiculite, wetting agent and starter nutrients and treated postemergence with test compounds formulated in a non-phytotoxic solvent mixture which included a surfactant. Plants ranged in height from 2 to 18 cm (1- to 4-leaf stage).
(§2) Treated plants and controls were maintained in a greenhouse for 13 to 15 days, after which time all species were compared to controls and visually evaluated. Plant response ratings, summarized in Table B, are based on a scale of 0 to 100 where 0 is no effect and 100 is complete control. A dash (-) response means no test result.

[2] = system: yellow nutsedge (Cyperus esculentus)
Text: as §1, §2

[3] = system: large crabgrass (Digitaria sanguinalis)
Text: as §1, §2

[4] = system: downy bromegrass (Bromus tectorum)
Text: as §1, §2

corn (Zea mays) = system: corn (Zea mays)
Text: as §1, §2

[5] = system: pigweed (Amaranthus retroflexus)
Text: as §1, §2

[6] = system: woolly cupgrass (Eriochloa villosa)
Text: as §1, §2

[7] = system: morningglory (Ipomoea coccinea)
Text: as §1, §2

[8] = system: bermudagrass (Cynodon dactylon)
Text: as §1, §2

[9] = system: velvetleaf (Abutilon theophrasti)
Text: as §1, §2

wild oat (Avena fatua) = system: wild oat (Avena fatua)
Text: as §1, §2

soybean (Glycine max) = system: soybean (Glycine max)
Text: as §1, §2

[10] = system: green foxtail (Setaria viridis)
Text: as §1, §2

[11] = system: johnsongrass (Sorghum halepense)
Text: as §1, §2

[12] = system: giant foxtail (Setaria faberii)
Text: as §1, §2

[13] = system: cocklebur (Xanthium strumarium)
Text: as §1, §2

[14] = system: goosegrass (Eleusine indica)
Text: as §1, §2

barley (Hordeum vulgare) = system: barley (Hordeum vulgare)
Text: as §1, §2

[15] = system: wheat (Triticum aestivum)
Text: as §1, §2

kochia (Kochia scoparia) = system: kochia (Kochia scoparia)
Text: as §1, §2

[16] = system: deadnettle (Lamium amplexicaule)
Text: as §1, §2

[17] = system: ragweed (Ambrosia elatior)
Text: as §1, §2

[18] = system: Surinam grass (Brachiaria decumbens)
Text: as §1, §2

COCCn1c(-c2cccc(F)c2)c(Cl)nc(C(=O)C2=C(O)CCCC2=O)c1=O [Compound 4, 5-chloro-6-(3-fluorophenyl)-3-[(2-hydroxy-6-oxo-1-cyclohexen-1-yl)carbonyl]-1-(2-methoxyethyl)-2(1H)pyrazinone]
90: Plant response rating, Pigweed ([5]; 125 g ai/ha) | Plant response rating, Morningglory ([7]; 31 g ai/ha) | Plant response rating, Kochia (kochia (Kochia scoparia); 250 g ai/ha) | Plant response rating, Ragweed ([17]; 250 g ai/ha)
40: Plant response rating, Bermudagrass ([8]; 250 g ai/ha) | Plant response rating, Oat, Wild (wild oat (Avena fatua); 250 g ai/ha) | Plant response rating, Foxtail, Giant ([12]; 31 g ai/ha)
65: Plant response rating, Nutsedge, Yellow ([2]; 250 g ai/ha) | Plant response rating, Pigweed ([5]; 31 g ai/ha) | Plant response rating, Cocklebur ([13]; 125 g ai/ha) | Plant response rating, Goosegrass ([14]; 250 g ai/ha) | Plant response rating, Ragweed ([17]; 62 g ai/ha) | Plant response rating, Surinam Grass ([18]; 125 g ai/ha)
55: Plant response rating, Corn (corn (Zea mays); 250 g ai/ha) | Plant response rating, Soybean (soybean (Glycine max); 31 g ai/ha) | Plant response rating, Kochia (kochia (Kochia scoparia); 125 g ai/ha) | Plant response rating, Surinam Grass ([18]; 31 g ai/ha)
75: Plant response rating, Crabgrass, Large ([3]; 62 g ai/ha) | Plant response rating, Cupgrass, Woolly ([6]; 125 g ai/ha) | Plant response rating, Velvetleaf ([9]; 250 g ai/ha) | Plant response rating, Soybean (soybean (Glycine max); 125 g ai/ha) | Plant response rating, Soybean (soybean (Glycine max); 250 g ai/ha) | Plant response rating, Johnsongrass ([11]; 125 g ai/ha) | Plant response rating, Foxtail, Giant ([12]; 250 g ai/ha) | Plant response rating, Ragweed ([17]; 125 g ai/ha)
0: Plant response rating, Bromegrass, Downy ([4]; 31 g ai/ha) | Plant response rating, Corn (corn (Zea mays); 31 g ai/ha) | Plant response rating, Barley (barley (Hordeum vulgare); 31 g ai/ha)
80: Plant response rating, Crabgrass, Large ([3]; 125 g ai/ha) | Plant response rating, Pigweed ([5]; 62 g ai/ha)
35: Plant response rating, Corn (corn (Zea mays); 125 g ai/ha) | Plant response rating, Bermudagrass ([8]; 125 g ai/ha) | Plant response rating, Foxtail, Green ([10]; 31 g ai/ha) | Plant response rating, Foxtail, Green ([10]; 62 g ai/ha) | Plant response rating, Foxtail, Green ([10]; 125 g ai/ha) | Plant response rating, Wheat ([15]; 250 g ai/ha)
50: Plant response rating, Cupgrass, Woolly ([6]; 31 g ai/ha) | Plant response rating, Velvetleaf ([9]; 31 g ai/ha) | Plant response rating, Velvetleaf ([9]; 62 g ai/ha) | Plant response rating, Goosegrass ([14]; 125 g ai/ha) | Plant response rating, Ragweed ([17]; 31 g ai/ha)
45: Plant response rating, Nutsedge, Yellow ([2]; 125 g ai/ha) | Plant response rating, Goosegrass ([14]; 62 g ai/ha) | Plant response rating, Kochia (kochia (Kochia scoparia); 62 g ai/ha)
60: Plant response rating, Velvetleaf ([9]; 125 g ai/ha) | Plant response rating, Soybean (soybean (Glycine max); 62 g ai/ha) | Plant response rating, Johnsongrass ([11]; 31 g ai/ha) | Plant response rating, Johnsongrass ([11]; 62 g ai/ha) | Plant response rating, Foxtail, Giant ([12]; 62 g ai/ha) | Plant response rating, Surinam Grass ([18]; 62 g ai/ha)
10: Plant response rating, Blackgrass ([1]; 250 g ai/ha) | Plant response rating, Bromegrass, Downy ([4]; 62 g ai/ha) | Plant response rating, Kochia (kochia (Kochia scoparia); 31 g ai/ha)
70: Plant response rating, Crabgrass, Large ([3]; 31 g ai/ha) | Plant response rating, Cupgrass, Woolly ([6]; 62 g ai/ha) | Plant response rating, Foxtail, Green ([10]; 250 g ai/ha) | Plant response rating, Foxtail, Giant ([12]; 125 g ai/ha) | Plant response rating, Surinam Grass ([18]; 250 g ai/ha)
30: Plant response rating, Oat, Wild (wild oat (Avena fatua); 62 g ai/ha) | Plant response rating, Oat, Wild (wild oat (Avena fatua); 125 g ai/ha) | Plant response rating, Barley (barley (Hordeum vulgare); 250 g ai/ha) | Plant response rating, Wheat ([15]; 125 g ai/ha)
5: Plant response rating, Blackgrass ([1]; 31 g ai/ha) | Plant response rating, Blackgrass ([1]; 62 g ai/ha) | Plant response rating, Blackgrass ([1]; 125 g ai/ha) | Plant response rating, Nutsedge, Yellow ([2]; 31 g ai/ha) | Plant response rating, Bermudagrass ([8]; 31 g ai/ha) | Plant response rating, Oat, Wild (wild oat (Avena fatua); 31 g ai/ha) | Plant response rating, Cocklebur ([13]; 31 g ai/ha) | Plant response rating, Goosegrass ([14]; 31 g ai/ha) | Plant response rating, Wheat ([15]; 31 g ai/ha)
85: Plant response rating, Crabgrass, Large ([3]; 250 g ai/ha) | Plant response rating, Cupgrass, Woolly ([6]; 250 g ai/ha) | Plant response rating, Johnsongrass ([11]; 250 g ai/ha) | Plant response rating, Cocklebur ([13]; 250 g ai/ha)
15: Plant response rating, Bromegrass, Downy ([4]; 125 g ai/ha) | Plant response rating, Bromegrass, Downy ([4]; 250 g ai/ha) | Plant response rating, Deadnettle ([16]; 31 g ai/ha) | Plant response rating, Deadnettle ([16]; 62 g ai/ha)
25: Plant response rating, Cocklebur ([13]; 62 g ai/ha)
20: Plant response rating, Nutsedge, Yellow ([2]; 62 g ai/ha) | Plant response rating, Corn (corn (Zea mays); 62 g ai/ha) | Plant response rating, Bermudagrass ([8]; 62 g ai/ha) | Plant response rating, Barley (barley (Hordeum vulgare); 62 g ai/ha) | Plant response rating, Barley (barley (Hordeum vulgare); 125 g ai/ha) | Plant response rating, Wheat ([15]; 62 g ai/ha)
95: Plant response rating, Morningglory ([7]; 62 g ai/ha) | Plant response rating, Morningglory ([7]; 125 g ai/ha) | Plant response rating, Morningglory ([7]; 250 g ai/ha)
98: Plant response rating, Pigweed ([5]; 250 g ai/ha)
